Data published in US3969532A, “1-Aryl-3-(2-hydroxyethyl) thioureas for treating depression” (The Dow Chemical Company, priority 1975, dated 1976).
Read-outs that look alike come from different tables or passages of the source.

System: reserpine-induced ptosis
Assay: Antagonism of reserpine-induced ptosis in mice (antidepressant test)
Assay type: in vivo
Conditions: for ED50: Mus musculus, 1.25 h; for inhibition of reserpine-induced ptosis (in words): comparative trials, dosages of 60 mg/kg (i.p.)
[1] = ip, mice, compound i.p. 30 minutes before i.p. reserpine, ptosis noted 45 minutes after reserpine, read-out: ED50 (median effective dose protecting 50% of mice from reserpine-induced ptosis), i.p.
[2] = mice, compound oral 30 minutes before i.p. reserpine, ptosis noted 45 minutes after reserpine, read-out: ED50 (median effective dose protecting 50% of mice from reserpine-induced ptosis), oral

Method: The antidepressant properties of the compounds employed in the methods of the present invention are determined by measuring their ability to counteract ptosis induced in animals by the intraperitoneal injection of reserpine. […] Forty-five minutes after the administration of reserpine, the presence or absence of ptosis is noted. The percent inhibition of ptosis is noted and the median effective dose (ED50) of each test ingredient which protected 50% of the test mice from reserpine-induced ptosis was calculated.

Q: For `COc1ccc(NC(=S)NCCO)c(OC)c1` [Compound 3, 1-(2,4-dimethoxyphenyl)-3-(2-hydroxyethyl)thiourea], which ED50 [1] is on record?
A: The ED50 was 38 mg/kg.

Q: For `COc1ccc(NC(=S)NCCO)cc1OC` [3,4-dimethoxy], which “inhibition of reserpine-induced ptosis (in words)” value is on record?
A: Its value is “did not inhibit reserpine-induced ptosis”.

Q: Which ED50 [2] does the source give for `COc1ccc(NC(=S)NCCO)c(C)c1` [Compound 2, 1-(4-methoxy-2-methylphenyl)-3-(2-hydroxyethyl)thiourea] here?
A: Its ED50 is 16.2 mg/kg.

Q: And the ED50 [1]?
A: The ED50 was 10 mg/kg.

Q: Which ED50 [2] does the source give for `CN(C)CCC=C1c2ccccc2COc2ccccc21` [Doxepin] here?
A: The ED50 was 27 mg/kg.

Q: And the ED50 [1]?
A: The ED50 was 27 mg/kg.

Q: How did the ED50 (po, read-out: ED50 (median effective dose protecting 50% of mice from reserpine-induced ptosis), oral) turn out when `CN(C)CCCN1c2ccccc2CCc2ccccc21` [Imipramine] was run?
A: The ED50 was 14 mg/kg.

Q: How did the ED50 [2] turn out when `Cc1ccc(CNC(=S)NCCO)c(C)c1` [Compound 1, 1-(2,4-dimethylbenzyl)-3-(2-hydroxyethyl)thiourea] was run?
A: The ED50 was 6.8 mg/kg.

Q: What about the ED50 [1] of the same molecule?
A: The ED50 was 11 mg/kg.

Q: Which “inhibition of reserpine-induced ptosis (in words)” value does the source give for `COc1ccccc1NC(=S)NCCO` [Compound 2-methoxy] here?
A: Its value is “did not inhibit reserpine-induced ptosis”.
